Laboratory results: ChEMBL document CHEMBL1629559, “Real-time PCR detection of gyrA and parC mutations in Streptococcus pneumoniae” (2008)
≈ marks a conversion by molar mass, not a printed value.

Key:
[1] = test system: Streptococcus pneumoniae; assay: Antibacterial activity against Streptococcus pneumoniae R6 Tr10 harboring gyrA Ser81Tyr parC Ser79Tyr mutant gene by agar disk diffusion method; assay type: functional
[2] = test system: Streptococcus pneumoniae; assay: Antibacterial activity against Streptococcus pneumoniae U2A1413 harboring parC Ser79Tyr mutant gene by agar dilution method; assay type: functional
[3] = test system: Streptococcus pneumoniae; assay: Antibacterial activity against Streptococcus pneumoniae U2A1051 harboring gyrA Ser81Tyr mutant gene by agar disk diffusion method; assay type: functional
[4] = test system: Streptococcus pneumoniae; assay: Antibacterial activity against Streptococcus pneumoniae U2A1414 harboring gyrA Glu85Lys parC Ser79Phe mutant gene by agar dilution method; assay type: functional
[5] = test system: Streptococcus pneumoniae; assay: Antibacterial activity against Streptococcus pneumoniae U2A1413 harboring parC Ser79Tyr mutant gene by agar disk diffusion method; assay type: functional
[6] = test system: Streptococcus pneumoniae; assay: Antibacterial activity against Streptococcus pneumoniae U2A1053 harboring parC Ser79Phe mutant gene by agar disk diffusion method; assay type: functional
[7] = test system: Streptococcus pneumoniae; assay: Antibacterial activity against Streptococcus pneumoniae CIP104485 by agar dilution method; assay type: functional; details: CIP1044
[8] = test system: Streptococcus pneumoniae; assay: Antibacterial activity against Streptococcus pneumoniae CIP104485 by agar disk diffusion method; assay type: functional, CIP1044
[9] = test system: Streptococcus pneumoniae; assay: Antibacterial activity against Streptococcus pneumoniae R6 Tr6 harboring gyrA Ser81Phe mutant gene by agar disk diffusion method; assay type: functional
[10] = test system: Streptococcus pneumoniae; assay: Antibacterial activity against Streptococcus pneumoniae U2A1053 harboring parC Ser79Phe mutant gene by agar dilution method; assay type: functional
[11] = test system: Streptococcus pneumoniae; assay: Antibacterial activity against Streptococcus pneumoniae R6 Tr6 harboring gyrA Ser81Phe mutant gene by agar dilution method; assay type: functional
[12] = test system: Streptococcus pneumoniae; assay: Antibacterial activity against Streptococcus pneumoniae R6 by agar dilution method; assay type: functional
[13] = test system: Streptococcus pneumoniae; assay: Antibacterial activity against Streptococcus pneumoniae U2A1051 harboring gyrA Ser81Tyr mutant gene by agar dilution method; assay type: functional
[14] = test system: Streptococcus pneumoniae; assay: Antibacterial activity against Streptococcus pneumoniae U2A1266 harboring gyrA Ser81Cys mutant gene by agar disk diffusion method; assay type: functional
[15] = test system: Streptococcus pneumoniae; assay: Antibacterial activity against Streptococcus pneumoniae U2A1056 harboring gyrA Ser81Tyr parC Asp83His mutant gene by agar disk diffusion method; assay type: functional
[16] = test system: Streptococcus pneumoniae; assay: Antibacterial activity against Streptococcus pneumoniae R6 Tr1 harboring parC Ser79Tyr mutant gene by agar disk diffusion method; assay type: functional
[17] = test system: Streptococcus pneumoniae; assay: Antibacterial activity against Streptococcus pneumoniae R6 Tr10 harboring gyrA Ser81Tyr parC Ser79Tyr mutant gene by agar dilution method; assay type: functional
[18] = test system: Streptococcus pneumoniae; assay: Antibacterial activity against Streptococcus pneumoniae R6 by agar disk diffusion method; assay type: functional
[19] = test system: Streptococcus pneumoniae; assay: Antibacterial activity against Streptococcus pneumoniae U2A1686 harboring gyrA Glu85Lys mutant gene by agar dilution method; assay type: functional
[20] = test system: Streptococcus pneumoniae; assay: Antibacterial activity against Streptococcus pneumoniae U2A1060 harboring gyrA Ser81Phe parC Asp83His mutant gene by agar dilution method; assay type: functional
[21] = test system: Streptococcus pneumoniae; assay: Antibacterial activity against Streptococcus pneumoniae U2A1681 harboring parC Ser79Tyr Asp83Ala mutant gene by agar dilution method; assay type: functional
[22] = test system: Streptococcus pneumoniae; assay: Antibacterial activity against Streptococcus pneumoniae U2A1056 harboring gyrA Ser81Tyr parC Asp83His mutant gene by agar dilution method; assay type: functional
[23] = test system: Streptococcus pneumoniae; assay: Antibacterial activity against Streptococcus pneumoniae U2A1414 harboring gyrA Glu85Lys parC Ser79Phe mutant gene by agar disk diffusion method; assay type: functional
[24] = test system: Streptococcus pneumoniae; assay: Antibacterial activity against Streptococcus pneumoniae CP1000 by agar disk diffusion method; assay type: functional
[25] = test system: Streptococcus pneumoniae; assay: Antibacterial activity against Streptococcus pneumoniae U2A1681 harboring parC Ser79Tyr Asp83Ala mutant gene by agar disk diffusion method; assay type: functional
[26] = test system: Streptococcus pneumoniae; assay: Antibacterial activity against Streptococcus pneumoniae U2A1050 harboring gyrA Ser81Phe mutant gene by agar disk diffusion method; assay type: functional
[27] = test system: Streptococcus pneumoniae; assay: Antibacterial activity against Streptococcus pneumoniae U2A1686 harboring gyrA Glu85Lys mutant gene by agar disk diffusion method; assay type: functional
[28] = test system: Streptococcus pneumoniae; assay: Antibacterial activity against Streptococcus pneumoniae U2A1060 harboring gyrA Ser81Phe parC Asp83His mutant gene by agar disk diffusion method; assay type: functional
[29] = test system: Streptococcus pneumoniae; assay: Antibacterial activity against Streptococcus pneumoniae U2A1411 harboring parC Asp83Gly mutant gene by agar dilution method; assay type: functional
[30] = test system: Streptococcus pneumoniae; assay: Antibacterial activity against Streptococcus pneumoniae U2A1411 harboring parC Asp83Gly mutant gene by agar disk diffusion method; assay type: functional
[31] = test system: Streptococcus pneumoniae; assay: Antibacterial activity against Streptococcus pneumoniae U2A1266 harboring gyrA Ser81Cys mutant gene by agar dilution method; assay type: functional
[32] = test system: Streptococcus pneumoniae; assay: Antibacterial activity against Streptococcus pneumoniae R6 Tr1 harboring parC Ser79Tyr mutant gene by agar dilution method; assay type: functional
[33] = test system: Streptococcus pneumoniae; assay: Antibacterial activity against Streptococcus pneumoniae CP1000 by agar dilution method; assay type: functional
[34] = test system: Streptococcus pneumoniae; assay: Antibacterial activity against Streptococcus pneumoniae U2A1050 harboring gyrA Ser81Phe mutant gene by agar dilution method; assay type: functional
[35] = test system: Streptococcus pneumoniae; assay: Antibacterial activity against Streptococcus pneumoniae H548 clinical isolate harboring gyrA Ser81Phe mutant gene by agar disk diffusion method; assay type: functional
[36] = test system: Streptococcus pneumoniae; assay: Antibacterial activity against Streptococcus pneumoniae U2A1693 harboring parC Asp83Asn mutant gene by agar disk diffusion method; assay type: functional
[37] = test system: Streptococcus pneumoniae; assay: Antibacterial activity against Streptococcus pneumoniae U2A1693 harboring parC Asp83Asn mutant gene by agar dilution method; assay type: functional

SMILES | diameter of the inhibition zone (DIZ) [1] [mm] | MIC [2] [µg/mL] | diameter of the inhibition zone (DIZ) [3] [mm] | MIC [4] [µg/mL] | diameter of the inhibition zone (DIZ) [5] [mm] | diameter of the inhibition zone (DIZ) [6] [mm] | diameter of the inhibition zone (DIZ) [8] [mm] | diameter of the inhibition zone (DIZ) [9] [mm] | diameter of the inhibition zone (DIZ) [14] [mm] | diameter of the inhibition zone (DIZ) [15] [mm] | diameter of the inhibition zone (DIZ) [16] [mm] | diameter of the inhibition zone (DIZ) [18] [mm] | diameter of the inhibition zone (DIZ) [23] [mm] | diameter of the inhibition zone (DIZ) [24] [mm] | diameter of the inhibition zone (DIZ) [25] [mm] | diameter of the inhibition zone (DIZ) [26] [mm] | diameter of the inhibition zone (DIZ) [27] [mm] | diameter of the inhibition zone (DIZ) [28] [mm] | diameter of the inhibition zone (DIZ) [30] [mm] | diameter of the inhibition zone (DIZ) [36] [mm] | other results
O=C(O)c1cn(C2CC2)c2cc(N3CCNCC3)c(F)cc2c1=O [CIPROFLOXACIN] | 6 | 2 (≈ 6.04 µM) | 22 | > 32 | 24 | 19 | 25 | 21 | 23 | 6 | 19 | 21 | 6 | 23 | 6 | 23 | 25 | 6 | 10 | – | MIC [7]: 1 µg/mL (≈ 3.02 µM); MIC [10]: 4 µg/mL (≈ 12.1 µM); MIC [11]: 1 µg/mL (≈ 3.02 µM); MIC [12]: 1 µg/mL (≈ 3.02 µM); MIC [13]: 2 µg/mL (≈ 6.04 µM); MIC [17]: > 32 µg/mL; MIC [19]: 1 µg/mL (≈ 3.02 µM); MIC [20]: > 32 µg/mL; MIC [21]: > 32 µg/mL; MIC [22]: 32 µg/mL (≈ 96.6 µM); MIC [29]: > 32 µg/mL; MIC [31]: 2 µg/mL (≈ 6.04 µM); MIC [32]: 2 µg/mL (≈ 6.04 µM); MIC [33]: 1 µg/mL (≈ 3.02 µM); MIC [34]: 2 µg/mL (≈ 6.04 µM)
C[C@H]1COc2c(N3CCN(C)CC3)c(F)cc3c(=O)c(C(=O)O)cn1c23.C[C@H]1COc2c(N3CCN(C)CC3)c(F)cc3c(=O)c(C(=O)O)cn1c23.O [LEVOFLOXACIN] | 6 | – | 22 | > 32 | 22 | 22 | 22 | 23 | 21 | 12 | 21 | 21 | 6 | 24 | 6 | 19 | 26 | 6 | 15 | 19 | diameter of the inhibition zone (DIZ) [35]: 6 mm
COc1c(N2C[C@@H]3CCCN[C@@H]3C2)c(F)cc2c(=O)c(C(=O)O)cn(C3CC3)c12 [MOXIFLOXACIN] | 18 | 0.25 (≈ 0.623 µM) | 25 | 8 (≈ 19.9 µM) | 31 | 26 | 26 | 24 | 26 | – | 28 | 26 | 17 | 28 | 12 | 25 | 27 | 18 | 25 | 27 | MIC [7]: 0.125 µg/mL (≈ 0.311 µM); MIC [10]: 0.25 µg/mL (≈ 0.623 µM); MIC [11]: 0.5 µg/mL (≈ 1.25 µM); MIC [37]: 0.5 µg/mL (≈ 1.25 µM); MIC [12]: 0.125 µg/mL (≈ 0.311 µM); MIC [13]: 1 µg/mL (≈ 2.49 µM); MIC [19]: 0.5 µg/mL (≈ 1.25 µM); MIC [21]: 8 µg/mL (≈ 19.9 µM); MIC [22]: 2 µg/mL (≈ 4.98 µM); MIC [29]: 0.5 µg/mL (≈ 1.25 µM); MIC [31]: 0.5 µg/mL (≈ 1.25 µM); MIC [32]: 0.5 µg/mL (≈ 1.25 µM); MIC [33]: 0.25 µg/mL (≈ 0.623 µM); MIC [34]: 1 µg/mL (≈ 2.49 µM)
CCn1cc(C(=O)O)c(=O)c2ccc(C)nc21 [NALIDIXIC ACID] | 6 | – | 8 | – | 6 | 13 | 6 | 6 | 6 | 6 | 6 | 6 | 6 | 6 | 6 | 6 | 6 | 14 | 6 | 6 | diameter of the inhibition zone (DIZ) [35]: 6 mm
C[C@@H]1CN(c2c(F)c(N)c3c(=O)c(C(=O)O)cn(C4CC4)c3c2F)C[C@H](C)N1 [SPARFLOXACIN] | 12 | 0.25 (≈ 0.637 µM) | 22 | > 32 | 28 | 25 | 24 | 23 | 23 | 11 | 25 | 23 | 6 | 26 | 6 | 22 | 24 | 11 | 19 | 24 | diameter of the inhibition zone (DIZ) [35]: 20 mm; MIC [7]: 0.25 µg/mL (≈ 0.637 µM); MIC [10]: 0.25 µg/mL (≈ 0.637 µM); MIC [11]: 1 µg/mL (≈ 2.55 µM); MIC [12]: 0.25 µg/mL (≈ 0.637 µM); MIC [13]: 2 µg/mL (≈ 5.1 µM); MIC [17]: 16 µg/mL (≈ 40.8 µM); MIC [19]: 2 µg/mL (≈ 5.1 µM); MIC [20]: 16 µg/mL (≈ 40.8 µM); MIC [21]: 32 µg/mL (≈ 81.5 µM); MIC [22]: 8 µg/mL (≈ 20.4 µM); MIC [31]: 1 µg/mL (≈ 2.55 µM); MIC [32]: 1 µg/mL (≈ 2.55 µM); MIC [33]: 0.25 µg/mL (≈ 0.637 µM); MIC [34]: 2 µg/mL (≈ 5.1 µM)
